Measured values reported in patent US10076576B2, “Minimally toxic prodrugs” (priority 2012, dated 2018).
Read-outs that look alike come from different tables or passages of the source.

Experiments:
[1] = test system: mouse embryonic fibroblasts (MEF); assay: In vitro cytotoxicity on control fibroblasts (neutral red uptake); format: cell-based; details: 48 h
Experimental: FIG. 5. In vitro cellular toxicity of PhAc-ALGP-Dox and Doxorubicin on Cor.At® cells (mouse embryonic stem cell derived cardiomyocytes). As non-specific control, the test was also performed on inactivated mouse embryonic fibroblasts (MEF). Cells were cultured for 48 h in the presence of drugs and a neutral red uptake test was performed to determine cell viability. Results represent the cytotoxicity curves. The IC50 values were calculated from the cytotoxicity curves using the Prism GraphPad software 5.0.
The in vitro cardiotoxicity test was carried out in a relevant and predictive in vitro model for cardiac safety screening in early lead optimization using mouse embryonic stem cell derived cardiomyocytes (Cor.At®, Axiogenesis (Germany)). Cor.At® cardiomyocytes provide a standardized, homogenous and reproducible cell system for the in vitro classification of a compound's cardio-cytotoxic potential. After incubation with test compounds, the neutral red uptake test was used to determine effects which directly affect the viability and integrity of cardiac cells when compared to a non-specific reference cell type, e.g. mouse fibroblasts (MEF).

[2] = Experimental: FIG. 7. Toxicity study of PhAc-ALGP-Dox after single and multiple intraperitoneal (ip) injections in OF-1 mice. Animals were treated with PhAc-ALGP-Dox with different treatment schedules: at 56 μmol/kg 5× (Q1D5 -*-); at 28 μmol/kg 10× (2Q1D5 -▪-); at 560 μmol/kg 1× (-□-); at 112 μmol/kg 5× (Q1D5 -▴-); at 56 μmol/kg 10× (2Q1D5 -×-).
PhAc-ALGP-Dox was dissolved in saline and administered by single or multiple intraperitoneal (ip) injections […] of OF-1 mice (10 μl/g). PhAc-ALGP-Dox was administered at similar cumulative doses of 280 and 560 μmol/kg following different injections schedules: single ip injection; 5 consecutive daily ip injections at 56 and 112 μmol/kg or twice a day for five consecutive days at the doses of 28 and 56 μmol/kg. The in vivo toxicity was evaluated by monitoring the body weight.

[3] = test system: B16-F10 murine melanoma cells; format: in vivo, C57BL6 mice
Experimental: FIG. 11. Evaluation of PhAc-ALGP-Dox efficacy in comparison with Doxorubicin in the B16-F10 lung metastatic melanoma model. Graph on the left side represents quantification of melanin of lung metastasis at day 14 after injection of B16F10 tumor cells. Graph on the right side show the survival curves.
The efficacy of PhAc-ALGP-Dox was tested in the well described B16-F10 lung metastatic melanoma model. For that purpose, […] B16-F10 murine melanoma cells were injected in the lateral vein of C57BL6 mice. Treatments started three days after cells injection. Animal received twice a day (at 5-6 h interval) for 5 consecutive days intraperitoneal injections (total 10 injections/mouse) of saline or of Doxorubicin at 2 and 3.5 μmol/kg or of PhAc-ALGP-Dox at 50 μmol/kg. Five mice per group were sacrificed at day 14 after cells injection. Lungs were collected and processed for melanin quantification (Molecular Pharmacology, 74: 1576-1586, 2008). Survival was determined by observation of the remaining mice.

[4] = format: in vivo, CD1 mice
Experimental: FIG. 12. Evaluation of PhAc-ALGP-Dox leucopenic effect in comparison with Doxorubicin. CD1 mice received twice daily intraperitoneal injections of PhAc-ALGP-Dox 35 μmol/kg (●) or of Doxorubicin 3.5 μmol/kg (▪) for five consecutive days. The mice body weight evolution was recorded (A). Blood was collected from the tail vein in heparinised Microvettes tubes (Starsted) at day 4, 11 and 15 after treatment initiation. Peripheral white blood cells (WBC) were counted using the SCILvet abc hematologic analyzer (B). The increase or decrease in WBC is expressed as a percentage of WBC on day 0 (100%) for each mouse. The curves show evolution of the mean percentages.
The leucopenic effects of PhAc-ALGP-Dox (35 μmol/kg ip) and of Doxorubicin (3.5 μmol/kg ip) were compared in two independent experiments. CD1 mice received two daily intraperitoneal injections of drugs for five consecutive days (total 10 injections/mouse; 2×5 animals per group). The mice body weight evolution was recorded. Blood was collected from the tail vein in EDTA-coated Microvettes tubes (Starsted) at day 4, 11 and 15 after treatment initiation. White blood cells (WBC) were counted using the SCILvet abc hematologic analyzer. The increase or decrease in WBC was expressed as a percentage of WBC on day 0 (100%) for each mouse.

[5] = in vivo; details: female, OF-1, mouse, iv, 86.2 umol/kg
Experimental: Time evolution of plasma concentration (A, B) and of cardiac tissue concentration (C, D) of Doxorubicin or PhAc-ALGP-Dox and its metabolites after i.v. bolus injection to OF-1 female wild type mice at the dose of 86.2 μmol/kg. Results represent the mean concentration±SD (n=3).
Pharmacokinetic tissue distribution studies were performed using OF-1 mice. […] At different time points after drug administration (5 min, 30 min, 1 h, 4 h, 7 h, 16 h and 24 h) 3 mice per group were sacrificed by cervical dislocation and blood and heart tissue were collected. Hearts were incised and rinsed carefully in phosphate buffer saline (to eliminate blood in the cardiac cavities), dried on paper and frozen in liquid nitrogen. They were stored until analysis. Blood samples were centrifuged (10 min, 2000 g, 4° C.) to separate the plasma fraction, which was stored for analysis. The hearts were homogenized with an Ultraturrax homogenizer in 1.5 mL water. The protein concentration was measured using the microBCA protein assay (Pierce). The drug tissue quantification was made by HPLC after extraction: 150 μL of acetonitrile was added to the 50 μL samples. Samples were vortexed and centrifuged for 10 min at 13 000 rpm at room temperature. Supernatant was collected. Samples were buffered by addition of 200 mM formiate buffer pH 4.5 (1 V sample supernatant+3 V buffer) before HPLC analysis (fluo detection ex=235 nm em=560 nm).

[6] = Pharmacokinetics and heart quantification after single ip injection; details: for Dox concentration in heart after 24 h: ip 92 μmol/kg of the labelled drug, ± SD
Experimental: Time evolution of blood concentration of PhAc-ALGP-Dox and its metabolites (A) or of Doxorubicin (B) after intraperitoneal injection to OF-1 female wild type mice at the equimolar dose of 92 μmol/kg. Results represent the mean concentration±SD (n=3).
Pharmacokinetic tissue distribution studies were performed using OF-1 mice. Doxorubicin and PhAc-ALGP-Dox were dissolved in saline at the dose of 9.2 mM and administered to mice by intraperitoneal route (10 μL/g, 6 mice per group). At different time points after drug administration (5 min, 30 min, 1 h, 4 h, and 24 h), blood samples were collected from the lateral tail vein of three mice using EDTA-coated microtubes (Starsted). After 24 h, 3 mice per group were sacrificed by cervical dislocation and hearts were collected. They were incised and rinsed carefully in phosphate buffer saline (to eliminate blood in the cardiac cavities), dried on paper and frozen in liquid nitrogen. They were stored until analysis. The hearts were homogenized with an Ultraturrax homogenizer in 1.5 mL water. The protein concentration was measured using the microBCA protein assay (Pierce). The drug tissue quantification was made by HPLC after extraction: 150 μL of acetonitrile was added to the 50 μL samples. Samples were vortexed and centrifuged for 10 min at 13 000 rpm at room temperature. Supernatant was collected. Samples were buffered by addition of 200 mM formiate buffer pH 4.5 (1 V sample supernatant+3 V buffer) before HPLC analysis (fluo detection ex=235 nm em=560 nm).

COc1cccc2c1C(=O)c1c(O)c3c(c(O)c1C2=O)C[C@@](O)(C(=O)CO)C[C@@H]3O[C@H]1C[C@H](N)[C@H](O)[C@H](C)O1 [Doxorubicin, reference compound]
viability of MEF ([1]; 0.2 μg/ml): 89%
toxic effect on MEF (in words) ([1]; 20 μg/ml and 2 μg/ml): severe toxic effect
maximum tolerated dose ([2]; OF-1, mouse, in vivo, ip): 3 µmol/kg
median survival ([3]; 2 μmol/kg ip 2Q1D5): 24 days
amount of melanin in lung homogenate ([3]; 2 μmol/kg ip 2Q1D5, day 14): 183 mg/mL
median survival ([3]; 3.5 μmol/kg ip 2Q1D5): 28 days
amount of melanin in lung homogenate ([3]; 3.5 μmol/kg ip 2Q1D5, day 14): 53 mg/mL
mortality ([4]; 3.5 μmol/kg ip 2Q1D5, 2×5 animals): one mouse was found dead at day 11 as well as 3 mice at day 15
AUC [5]: 63 µM·h
percentage of the injected dose reaching the blood compartment in the first five minutes ([6]; ip 92 μmol/kg): about 2.5%
Dox concentration in heart after 24 h [6]: 253 ± 60 pmol/mg protein

COc1cccc2c1C(=O)c1c(O)c3c(c(O)c1C2=O)CC(O)(C(=O)CO)CC3OC1CC(NC(=O)C2CCCN2C(=O)CNC(=O)C(CC(C)C)NC(=O)C(C)NC(=O)CP(=O)(O)O)C(O)C(C)O1 (centres unmarked) [PhAc-ALGP-Dox, PhAc-ALGP-doxorubicin]
IC50 on MEF ([1]; up to 20 μg/ml): no IC50 is reached
body weight loss (in words) ([2]; 56 μmol/kg, 10 ip injections (twice a day for five consecutive days)): No body weight loss
maximum body weight loss ([2]; 112 μmol/kg, five consecutive daily ip injections, day 11): 22.5%
toxicity (in words) ([2]; 560 μmol/kg single ip injection): very toxic
body weight lost ([2]; 560 μmol/kg single ip injection, in one week): 25%
body weight loss (in words) ([2]; cumulative dose 280 μmol/kg ip, whatever the injection schedule): no body weight loss
times less toxic than doxorubicin ([2]; ip twice a day for five consecutive days): about 15 times
median survival ([3]; 50 μmol/kg ip 2Q1D5): 36 days
amount of melanin in lung homogenate ([3]; 50 μmol/kg ip 2Q1D5, day 14): 16 mg/mL
leucopenic effect and body weight loss (in words) ([4]; 35 μmol/kg ip 2Q1D5): No leucopenic effect and body weight loss
AUC [5]: 97 µM·h
percentage of the injected dose reaching the blood compartment in the first five minutes ([6]; ip 92 μmol/kg): about 1%
time after which the conjugate was no longer detected in blood ([6]; ip 92 μmol/kg): 4 h
Doxorubicin cardiac accumulation versus Doxorubicin injection (times less) ([6]; ip 92 μmol/kg equimolar, 24 h): 19 times
Dox concentration in heart after 24 h [6]: 13 ± 3 pmol/mg protein
